Test results as given in patent US20220324835A1 (Nurix Therapeutics, Inc., priority 2018, published 2022).

Experiments:
Format in all cases: cell-based
anergic human T-cells = experiment: Anergic T-cell activation assessed by IFNγ secretion (ionomycin-induced anergy); settings: anergic T-cells re-challenged with anti-CD3 and anti-CD28 for 24 hours, read-out: IFNγ Fold change from baseline
From the text: Peripheral blood mononuclear cells (PBMC) were obtained either: 1) by using Ficoll-Paque™ (GE Healthcare) for separation of peripheral blood hematopoietic cells from buffy coats of healthy human donors; or 2) directly from LeukoPak donations. Total human primary T-cells were isolated from the PBMCs utilizing negative selection with commercial kits following the manufacturer's protocol (Miltenyi Catalog #130-096-535 (i.e., cocktail of antibodies against surface markers CD14, CD15, CD16, CD19, CD34, CD36, CD56, CD123 and CD235a were incubated with the PBMCs before passing the samples by magnetic beads for removal of cells expressing those surface markers) or StemCells Catalog #17951) to yield >95% CD3+ cells assessed by flow cytometry. The cells were activated with immobilized anti-CD3 antibody (OKT3) and soluble anti-CD28 antibody (28.2) for two days at which time they are washed and allowed to rest for three days in the absence of stimulation. They were then treated with ionomycin (Sigma) for 18-24 hours to induce anergy. Following two washes to remove the ionomycin from the samples, Cbl-b inhibitor compounds were added to the cells at the indicated concentrations (e.g. 10, 1.11 and 0.37 μM) and incubated for 1 hour. The cells were then re-challenged with anti-CD3 antibody and anti-CD28 antibody for 24 hours at which point cell free supernatants were collected and assessed for cytokines (e.g., IFNγ) by ELISA (R&D Systems or Peprotech) or Luminex multiplex kits (Procarta Life Technologies) following manufacturer's protocols.
Cbl-b inhibitors were tested to determine their ability to induce or enhance secretion of cytokines from anergic T-cells (e.g. IFNγ), which is indicative of decreased T-cell tolerance.
Readouts were reported as fold change over baseline. Baseline for this study was the measurement obtained from anergic human T-cells stimulated with immobilized anti-CD3 and soluble anti-CD28, wherein the T-cells were not incubated with a Cbl-b inhibitor (Table 7). For IFNγ changes greater than 2.5-fold over baseline were considered a positive response (Table 7). Compounds were ranked into bins according to their readout as follows for IFNγ: A indicates ≤2.50, B indicates 2.51-4.00 and C indicates >4.01.

[1] = tested on: primary human total T-cells; experiment: T-cell activation assessed by CD69 expression
From the text: (§1) Peripheral blood mononuclear cells (PBMC) were obtained either: 1) by using Ficoll-Paque™ (GE Healthcare) for separation of peripheral blood hematopoietic cells from buffy coats of healthy human donors; or 2) directly from FeukoPak donations. Total human primary T-cells were isolated from the PMBCs utilizing negative selection with commercial kits following the manufacturer's protocol (Miltenyi Catalog #130-096-535 (i.e., cocktail of antibodies against surface markers CD14, CD15, CD16, CD19, CD34, CD36, CD56, CD123 and CD235a are incubated with the PBMCs before passing the samples by magnetic beads for removal of cells expressing those surface markers) or StemCells Catalog #17951) to yield >95% CD3+ cells as assessed by flow cytometry. For measurement of cell proliferation, cells were labeled with Cell Trace Violet (Invitrogen) following manufacturer's protocol prior to activation by stimulation with anti-CD3 antibody alone or in combination with anti-CD28 antibody. The Cbl-b inhibitor was added to 1×10^5 cells per well at multiple concentrations (e.g., 10 μM, 1.11 μM, or 0.123 μM) with a final DMSO concentration of <0.1%. The plate was incubated for one hour at 37° C. in 5% CO2. Following incubation with the Cbl-b inhibitor, primary human total T-cells were stimulated with either plate bound anti-CD3 antibody (OKT3) alone or plate bound anti-CD3 antibody (OKT3) with soluble anti-CD28 antibody (28.2) (Life Technologies). To prepare plates with plate bound anti-CD3 antibody (OKT3), 96-well round bottom tissue culture plates were coated with 100 μl of anti-CD3 antibody (OKT3) at 10 μg/mL for 4 hours at 37° C. 5% CO2 in phosphate buffered saline (PBS). The plates were washed with PBS prior to adding the cells with or without soluble anti-CD28 antibody (28.2) to each well at a final concentration of 5 μg/mL. Cells were stimulated for 48 hours prior to harvesting the cell free supernatant and staining the cell population for surface marker assessment by flow cytometry. Supernatants were analyzed for cytokine secretion (e.g., GM-CSF, IFNγ and TNFα) by ELISA (R&D Systems, Peprotech or Life Technologies) or Luminex multiplex kits (Procarta Life Technologies) following manufacturer's protocol. Cells were stained with anti-CD69 (BD Biosciences) to assess levels of surface markers of activation. Proliferation was measured by flow cytometry and data was analyzed with FlowJo v7.6.5 or v10. Readouts were reported as fold change over baseline. In some embodiments, baseline was the measurement obtained from total human T-cells stimulated with anti-CD3 antibody alone, wherein the cells were not incubated with a Cbl-b inhibitor. In some embodiments, baseline was the measurement obtained from total human T-cells stimulated with anti-CD3 antibody and anti-CD28 antibody, where the cells were not incubated with a Cbl-b inhibitor.
(§2) Cbl-b inhibitors were tested to determine their ability to induce or enhance secretion of cytokines from T-cells (e.g., GM-CSF, IFNγ and TNFα) and/or surface expression of cell surface markers on T-cells (e.g., CD69) that is indicative of T-cell activation. Cbl-b inhibitors were also tested to determine their ability to induce or enhance T-cell proliferation. Cbl-b inhibitors were tested for their effects on T-cell activation in the presence of costimulation and where conditions were suboptimal for priming.
(§3) Readouts for T-cell activation were reported as fold change over baseline. Baseline for this study was the measurement obtained from total human T-cells stimulated with anti-CD3 antibody alone or anti-CD3 antibody in combination with soluble anti-CD28 antibody, where the cells were not incubated with a Cbl-b inhibitor. For T-cells stimulated with anti-CD3/anti-CD28 or with anti-CD3 alone changes greater than 1,2-fold over baseline for % positive CD69 staining and greater than 2-fold over baseline for % total proliferating cells were considered a significant and positive response (Table 4a). […]

[2] = tested on: primary human total T-cells; experiment: T-cell activation assessed by cell proliferation (Cell Trace Violet)
From the text: as §1, §2, §3

[3] = CD3/CD28 stimulation, CD4 T-cells, read-out: % CD69+ (CD4)
[4] = CD3/CD28 stimulation, CD8 T-cells, read-out: % CD69+ (CD8)
[5] = CD3 alone stimulation, CD4 T-cells, read-out: % CD69+ (CD4)
[6] = CD3 alone stimulation, CD8 T-cells, read-out: % CD69+ (CD8)
[7] = CD3/CD28 stimulation, CD4 T-cells, read-out: % CP (cell proliferation) (CD4)
[8] = CD3/CD28 stimulation, CD8 T-cells, read-out: % CP (cell proliferation) (CD8)
[9] = CD3 alone stimulation, CD8 T-cells, read-out: % CP (cell proliferation) (CD8)

Cc1cc(C(=O)Nc2cccc(C3(Cc4nncn4C)COC3)c2)nc(C2CC2)n1 [Compound 336, 2-cyclopropyl-6-methyl-N-(3-(3-((4-methyl-4H-1,2,4-triazol-3-yl)methyl)oxetan-3-yl)phenyl)pyrimidine-4-carboxamide]
fold induction at 0.37 µM (anergic human T-cells): 2.51 to 4
fold induction at 1.11 µM (anergic human T-cells): 2.51 to 4
fold induction at 10 µM (anergic human T-cells): > 4.01
fold induction at 1.11 µM [1, 3]: 1.4 to 1.6
fold induction at 10 µM [1, 3]: 1.4 to 1.6
fold induction at 1.11 µM [1, 4]: 1.2 to 1.4
fold induction at 10 µM [1, 4]: 1.2 to 1.4
fold induction at 1.11 µM [1, 5]: 1.4 to 1.6
fold induction at 10 µM [1, 5]: > 1.6
fold induction at 1.11 µM [1, 6]: 1.2 to 1.4
fold induction at 10 µM [1, 6]: 1.4 to 1.6
fold induction at 1.11 µM [2, 7]: > 4
fold induction at 10 µM [2, 7]: > 4
fold induction at 1.11 µM [2, 8]: 3.01 to 4
fold induction at 10 µM [2, 8]: > 4
fold induction at 1.11 µM [2, 9]: > 4
fold induction at 10 µM [2, 9]: > 4

C[C@H](Cc1nncn1C)c1cccc(N2Cc3c(cc(CN4CC(C)(O)C4)cc3C(F)(F)F)C2=O)c1 [Compound 397]
fold induction at 0.37 µM (anergic human T-cells): ≤ 2.5
fold induction at 1.11 µM (anergic human T-cells): > 4.01
fold induction at 10 µM (anergic human T-cells): > 4.01
fold induction at 1.11 µM [1, 3]: 1.4 to 1.6
fold induction at 10 µM [1, 3]: 1.4 to 1.6
fold induction at 1.11 µM [1, 4]: 1.2 to 1.4
fold induction at 10 µM [1, 4]: 1.2 to 1.4
fold induction at 1.11 µM [1, 5]: > 1.6
fold induction at 10 µM [1, 5]: > 1.6
fold induction at 1.11 µM [1, 6]: 1.2 to 1.4
fold induction at 10 µM [1, 6]: 1.4 to 1.6
fold induction at 1.11 µM [2, 7]: > 4
fold induction at 10 µM [2, 7]: > 4
fold induction at 1.11 µM [2, 8]: 3.01 to 4
fold induction at 10 µM [2, 8]: > 4
fold induction at 1.11 µM [2, 9]: > 4
fold induction at 10 µM [2, 9]: > 4

C[C@H](Cc1nncn1C)c1cccc(NC(=O)c2n[nH]c3c2CCC3)c1 [Compound 313, (R)-N-(3-(1-(4-Methyl-4H-1,2,4-triazol-3-yl)propan-2-yl)phenyl)-1,4,5,6-tetrahydrocyclopenta[c]pyrazole-3-carboxamide]
fold induction at 0.37 µM (anergic human T-cells): ≤ 2.5
fold induction at 1.11 µM (anergic human T-cells): ≤ 2.5
fold induction at 10 µM (anergic human T-cells): ≤ 2.5
fold induction at 1.11 µM [1, 3]: 1.4 to 1.6
fold induction at 10 µM [1, 3]: 1.2 to 1.4
fold induction at 1.11 µM [1, 4]: 1.2 to 1.4
fold induction at 10 µM [1, 4]: 1.2 to 1.4
fold induction at 1.11 µM [1, 5]: > 1.6
fold induction at 10 µM [1, 5]: 1.2 to 1.4
fold induction at 1.11 µM [1, 6]: 1.4 to 1.6
fold induction at 10 µM [1, 6]: ≤ 1.2
fold induction at 1.11 µM [2, 7]: > 4
fold induction at 10 µM [2, 7]: > 4
fold induction at 1.11 µM [2, 8]: 3.01 to 4
fold induction at 10 µM [2, 8]: 2.01 to 3
fold induction at 1.11 µM [2, 9]: > 4
fold induction at 10 µM [2, 9]: 2.01 to 3

C[C@H](Cc1nncn1C)c1cccc(N2Cc3c(cc(CN4CC[C@](C)(O)C4)cc3C(F)(F)F)C2=O)c1 [Compound 398, 6-(((S)-3-hydroxy-3-methylpyrrolidin-1-yl)methyl)-2-(3-((R)-1-(4-methyl-4H-1,2,4-triazol-3-yl)propan-2-yl)phenyl)-4-(trifluoromethyl)isoindolin-1-one]
fold induction at 0.37 µM (anergic human T-cells): ≤ 2.5
fold induction at 1.11 µM (anergic human T-cells): > 4.01
fold induction at 10 µM (anergic human T-cells): > 4.01
fold induction at 1.11 µM [1, 3]: 1.4 to 1.6
fold induction at 10 µM [1, 3]: 1.4 to 1.6
fold induction at 1.11 µM [1, 4]: 1.2 to 1.4
fold induction at 10 µM [1, 4]: 1.2 to 1.4
fold induction at 1.11 µM [1, 5]: > 1.6
fold induction at 10 µM [1, 5]: > 1.6
fold induction at 1.11 µM [1, 6]: 1.2 to 1.4
fold induction at 10 µM [1, 6]: 1.4 to 1.6
fold induction at 1.11 µM [2, 7]: > 4
fold induction at 10 µM [2, 7]: > 4
fold induction at 1.11 µM [2, 8]: 3.01 to 4
fold induction at 10 µM [2, 8]: > 4
fold induction at 1.11 µM [2, 9]: > 4
fold induction at 10 µM [2, 9]: > 4
